Patent US20220218652A1, “METHODS OF TREATING CYTOKINE RELEASE SYNDROME” (The General Hospital Corporation, priority 2018, published 2022)

Tests used:
[1] = test system: TgSOD1 mice; test: Meso Scale Discovery multi-spot cytokine assay, spinal cord lysates of TgSOD1 mice; format: in vivo; conditions: TgSOD1-Cromolyn vs TgSOD1-Vehicle; cromolyn sodium 6.3 mg/kg i.p. once daily, 5 days per week from P60; p=0.0273
Description: (§1) Cromolyn. sodium was provide by AZ Therapies and dissolved in PBS. 100 mM solution was used for in vivo experiments. Dulbecco's PBS was used to dilute the solution for intraperitoneal injections for a final dose of 6.3 mg/kg.
(§2) 149 male and female age- and litter-matched transgenic TgSOD1^G93A and wild-type WtSOD1^G93A mice were used with the following breakdown: Females (19 WtSOD1-Vehicle, 17 WtSOD1-Cromolyn, 19 TgSOD1-Vehicle, and 17 TgSOD1-Cromolyn) and Males (18 WtSOD1-Vehicle, 21 WtSOD1-Cromolyn, 21 TgSOD1-Vehicle, 17 TgSOD1-Cromolyn). The mice received once daily injections of either vehicle or cromolyn sodium (6.3 mg/kg, […] i.p.) 5 days per week starting at P60 until euthanasia.
B6SJL-Tg (SOD1 G93A)1Gur/J transgenic male mice were obtained from Jackson Laboratory and bred with C57BL/6 female mice to obtain wild-type WtSOD1 and mutant transgenic TgSOD1^G93A-expressing mice. To determine mouse genotype, RNA extraction and complimentary DNA (cDNA) synthesis was performed from tail biopsies acquired at postnatal day 28-40 followed by quantitative real-time PCR (qRT-PCR) using primers for the mutant G93A SOD1 gene (GGGAAGCTGTTGTCCCA AG and […])(SEQ ID NO: 1 and SEQ ID NO: 2, respectively). Both age- and litter-matched WtSOD1 and TgSOD1 male. and female mice were used for all studies as described below. […]

[2] = test system: TgSOD1 mice; test: Meso Scale Discovery multi-spot cytokine assay, plasma of TgSOD1 mice; format: in vivo; conditions: 6.3 mg/kg i.p.
Description: as §1, §2
B6SJL-Tg (SOD1 G93A)1Gur/J transgenic male mice were obtained from Jackson Laboratory and bred with C57BL/6 female mice to obtain wild-type WtSOD1 and mutant transgenic TgSOD1^G93A-expressing mice. To determine mouse genotype, RNA extraction and complimentary DNA (cDNA) synthesis was performed from tail biopsies acquired at postnatal day 28-40 followed by quantitative real-time PCR (qRT-PCR) using primers for the mutant G93A SOD1 gene (GGGAAGCTGTTGTCCCA AG and […])(SEQ ID NO: 1 and SEQ ID NO: 2, respectively). Both age- and litter-matched WtSOD1 and TgSOD1 male. and female mice were used for all studies as described below.
Spinal cord frozen tissue was homogenized in ice-cold RIPA buffer (Thermo Fisher Scientific, #8990) supplemented with protease inhibitor cocktail (Thermo Fisher Scientific, #78430). Samples were centrifuged at 45,000 g for 30 minutes at 4° C. using an Optima TL ultracentrifuge and a TLA 120.2 rotor (Beckman Coulter). Expression levels of the cytokines were assessed in the supernatants derived from spinal cord tissue or in the plasma, using an electrocheiniluminescence-based multi-array method and MESO Quickplex SQ 120 system (MSD, Rockville, Md., USA). The 96-well V-FLEX Proinflammatory Mouse 1 Kit (Meso Scale Discovery, #K15048D) was used to measure simultaneously IL-1β, IL-2, IL-5, IL-6, IL-10, and TNFα, following the manufacturer's instructions. Briefly, samples were diluted in the calibrator and added to the plate coated with an array of cytokine capture antibodies. Samples were incubated. in the plate for 2 hours with shaking at room temperature, followed by washes with the wash buffer provided in the kit. The detection antibody solution was added to each well and the plate was incubated for 2 hours. The plate was washed with the wash buffer and the 2× Read Buffer T was added. The signal was immediately measured on a MESO QuickIlex SQ 120 instrument and was analyzed using the DISCOVERY WORKBENCH 4.0 software (Meso Scale Diagnostics, LLC., Rockville, Md., USA). Protein concentrations in the supernatants or the plasma samples were measured using the Pierce BCA protein assay kit (Thermo Scientific). Values in the graphs represent levels of cytokines normalized to the corresponding protein concentrations.
Data are presented as median values. Box plots are used for graphical representation of population data with the central line representing the median, the edges representing the interquartile ranges, and the whiskers representing 10-90th percentiles. Data are also represented as medians±interquartile ranges or percent values. Sample sizes are included in the figure legends. Comparisons for unrelated samples were performed using a two-way ANOVA followed by Tukey's or Sidak's multiple comparison's test or a one-way ANOVA test followed by Tukey's multiple comparison post-tests at a significance level (a) of 0.05. For p<0.05 and >0.00001, exact P values (two-tailed) are reported.
Additionally, levels of L-1β, IL-2, IL-5, IL-6, IL-10, and TNFα were assessed in the plasma of a subset of mice (Females: 13 WtSOD1-Vehicle, 15 WtSOD1-Cromolyn, 6 TgSOD1-Vehicle, and 6 TgSOD1-Cromolyn; and Males: 14 WtSOD1-Vehicle, 10 WtSOD1-Cromolyn, 6 TgSOD1-Vehicle, 3 TgSOD1-Cromolyn).

[3] = test system: BV2-CD33wT cells; test: Aβ42 uptake by ELISA in BV2 cells stably expressing CD33; format: cell-based
Description: (§3) Naive BV2 microglial cells were treated with DMSO (control) or cromolyn (500 μM) for 16 hours. Afterwards, the cells were incubated with fluoresceraly-labeled A1342 (red) and DMSO or cromolyn for 2 hours. After incubation, the cells were labeled with a plasma membrane dye (PM, green) and imaged. BV2 microglial cells or BV2 cells stably expressing CD33 (BV2-CD33wT) were treated with DMSO or different concentrations of cromolyn for 16 hours. Then, cells were incubated with soluble untagged Aβ42 and DMSO or cromolyn for 2 hours and collected for ELBA analysis.

[4] = test system: BV2 microglial cells; test: Aβ42 uptake by ELISA and confocal microscopy in naive BV2 microglial cells; format: cell-based
Description: as §3

[5] = 16 hours pretreatment, then 2 hours with Aβ42, vs vehicle (DMSO), ELISA
[6] = different concentrations of cromolyn

Structure (SMILES): O=C(O)c1cc(=O)c2c(OCC(O)COc3cccc4oc(C(=O)O)cc(=O)c34)cccc2o1 [cromolyn, cromolyn sodium]
- TNFα level in spinal cord [1]: significant decrease
- IL-10 level in plasma ([2]; TgSOD1-Cromolyn vs TgSOD1-Vehicle, p=0.0095): significantly decreased
- IL-2 level in plasma ([2]; TgSOD1-Cromolyn vs TgSOD1-Vehicle, p=0.0211): significantly decreased
- IL-6 level in plasma ([2]; TgSOD1-Cromolyn vs TgSOD1-Vehicle, p=0.0273): significantly decreased
- TNFα level in plasma ([2]; TgSOD1-Cromolyn vs TgSOD1-Vehicle, p=0.110): trend towards a decrease
- IL-1β level in plasma ([2]; between groups): no statistically significant difference
- IL-5 level in plasma ([2]; between groups): no statistically significant difference
- internalized Aβ42 in BV2-CD33wT cells [3, 5]: increased levels of internalized Aβ42
- dose dependence of Aβ42 uptake modulation, BV2-CD33wT cells [3, 6]: dose-dependent effect
- Aβ42 uptake in naive BV2 microglial cells [4, 5]: increased Aβ42 uptake
- dose dependence of Aβ42 uptake modulation, naive BV2 cells [4, 6]: dose-dependent effect
